Results from patent publication US9694016B2 (Novartis AG, priority 2013, dated 2017).

target: b-Raf (V600E) (Homo sapiens (Human), UniProt P15056, V600E); conditions: read-out: b-Raf IC-50; AlphaScreen, 60 min pre-incubation, 3 hours reaction
Sequence (P15056 whole entry V600E): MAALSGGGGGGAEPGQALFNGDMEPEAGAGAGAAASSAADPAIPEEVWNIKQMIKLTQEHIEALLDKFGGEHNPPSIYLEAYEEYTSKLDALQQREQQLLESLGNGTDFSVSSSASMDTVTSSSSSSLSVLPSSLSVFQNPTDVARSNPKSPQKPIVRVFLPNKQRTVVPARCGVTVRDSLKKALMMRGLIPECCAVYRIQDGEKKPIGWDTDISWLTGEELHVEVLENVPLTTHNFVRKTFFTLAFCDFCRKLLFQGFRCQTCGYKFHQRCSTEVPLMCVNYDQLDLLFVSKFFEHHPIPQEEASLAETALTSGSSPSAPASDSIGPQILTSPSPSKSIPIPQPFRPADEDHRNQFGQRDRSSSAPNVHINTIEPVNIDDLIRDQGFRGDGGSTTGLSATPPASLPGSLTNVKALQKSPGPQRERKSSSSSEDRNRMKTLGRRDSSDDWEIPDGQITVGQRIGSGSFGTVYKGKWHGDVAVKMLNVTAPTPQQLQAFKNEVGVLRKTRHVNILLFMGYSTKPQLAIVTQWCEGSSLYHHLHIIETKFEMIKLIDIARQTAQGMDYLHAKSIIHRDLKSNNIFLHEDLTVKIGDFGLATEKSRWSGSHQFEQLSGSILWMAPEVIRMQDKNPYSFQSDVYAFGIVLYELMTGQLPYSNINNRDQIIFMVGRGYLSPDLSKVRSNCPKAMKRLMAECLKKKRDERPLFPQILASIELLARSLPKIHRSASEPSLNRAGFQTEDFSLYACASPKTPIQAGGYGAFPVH

Row | SMILES | IC50 [nM]
1 | Cc1ccc(C(=O)Nc2cccc(C(C)(C)O)c2)cc1-c1cc(N2CCOCC2)n(C)c(=O)c1 [Example 516, N-(3-(2-hydroxypropan-2-yl)phenyl)-4-methyl-3-(1-methyl-6-morpholino-2-oxo-1,2-dihydropyridin-4-yl)benzamide] | 17.7
2 | CCC(F)(F)c1cc(C(=O)Nc2ccc(C)c(-c3cc(N4CCOCC4)n(C)c(=O)c3)c2)ccn1 [Example 475, 2-(1,1-difluoropropyl)-N-(4-methyl-3-(1-methyl-6-morpholino-2-oxo-1,2-dihydropyridin-4-yl)phenyl)isonicotinamide] | 0.8
3 | Cc1ccc(NC(=O)c2ccnc(C(C)(F)F)c2)cc1-c1cc(N2CCOC[C@@H]2C)n(C)c(=O)c1 [Example 525, (S)-2-(1,1-difluoroethyl)-N-(4-methyl-3-(1-methyl-6-(3-methylmorpholino)-2-oxo-1,2-dihydropyridin-4-yl)phenyl)isonicotinamide] | 3.8
4 | Cc1ncc(NC(=O)c2ccnc(C(C)(F)F)c2)cc1-c1cc(N2CCOCC2)n(C)c(=O)c1 [Example 510, 2-(1,1-difluoroethyl)-N-(1′,2-dimethyl-6′-morpholino-2′-oxo-1′,2′-dihydro-[3,4′-bipyridin]-5-yl)isonicotinamide] | 7.5
5 | CCOc1nnc(-c2cc(NC(=O)c3ccnc(C(F)F)c3)ccc2C)cc1N1CCOCC1 [Example 562, 2-(difluoromethyl)-N-(3-(6-ethoxy-5-morpholinopyridazin-3-yl)-4-methylphenyl)isonicotinamide] | 0.6

Further lines, results first:

Row | IC50 [nM] | SMILES
6 | 10 | CCOc1nnc(-c2cc(NC(=O)c3ccnc(C(C)(C)C#N)c3)cnc2C)cc1N1CCOCC1 [Example 613, 2-(2-cyanopropan-2-yl)-N-(5-(6-ethoxy-5-morpholinopyridazin-3-yl)-6-methylpyridin-3-yl)isonicotinamide]
7 | 2.4 | Cc1ccc(NC(=O)c2ccnc(C(C)(C)F)c2)cc1-c1cc(C2CCOCC2)c(=O)n(C)n1 [Example 676, 2-(2-fluoropropan-2-yl)-N-(4-methyl-3-(1-methyl-6-oxo-5-(tetrahydro-2H-pyran-4-yl)-1,6-dihydropyridazin-3-yl)phenyl)isonicotinamide]
8 | 1.3 | CCNc1nc(-c2cc(NC(=O)c3cccc(C(F)(F)F)c3)cnc2C)cc(N2CCOCC2)n1 [Example 716, N-(5-(2-(ethylamino)-6-morpholinopyrimidin-4-yl)-6-methylpyridin-3-yl)-3-(trifluoromethyl)benzamide]
9 | 1.1 | Cc1ccc(NC(=O)c2ccnc(C(C)(F)F)c2)cc1-c1cc(N2CCOCC2)c(=O)n(C)n1 [Example 657, 2-(1,1-difluoroethyl)-N-(4-methyl-3-(1-methyl-5-morpholino-6-oxo-1,6-dihydropyridazin-3-yl)phenyl)isonicotinamide]
10 | 6.3 | Cc1ccc(NC(=O)c2cccc(C(F)(F)F)c2)cc1-c1cc(N2CCOCC2)nc(N2C(=O)OC[C@@H]2C)n1 [Example 783, (S)—N-(4-methyl-3-(2-(4-methyl-2-oxooxazolidin-3-yl)-6-morpholinopyrimidin-4-yl)phenyl)-3-(trifluoromethyl)benzamide]

same assay, conditions: read-out: b-Raf IC-50; AlphaScreen, 60 min pre-incubation, reaction 3 hours at room temperature

Row | IC50 [nM] | SMILES
11 | 57.7 | Cc1ncc(NC(=O)c2ccnc(C(C)(C)C#N)c2)cc1-c1cc(N2CCOCC2)c(S(C)(=O)=O)nn1 [Example 924, 2-(2-cyanopropan-2-yl)-N-(6-methyl-5-(6-(methylsulfonyl)-5-morpholinopyridazin-3-yl)pyridin-3-yl)isonicotinamide]
12 | 3.63 | Cc1ccc(NC(=O)c2cc(C(C)(C)O)ccn2)cc1-c1cnc(OC(C)C)c(N2CCOCC2)c1 [Example 949, 4-(2-hydroxypropan-2-yl)-N-(3-(6-isopropoxy-5-morpholinopyridin-3-yl)-4-methylphenyl)picolinamide]
13 | 7.64 | Cc1ncc(NC(=O)c2ccnc(C(F)(F)F)c2)cc1-c1cc(N2CCOCC2)nc(N2CC(C)(O)C2)c1 [Example 1104, N-(2′-(3-hydroxy-3-methylazetidin-1-yl)-2-methyl-6′-morpholino-[3,4′-bipyridin]-5-yl)-2-(trifluoromethyl)isonicotinamide]
14 | 2.24 | Cc1ccc(NC(=O)c2ccnc(C(F)(F)F)c2)cc1-c1cc(N2CCOCC2)nc(N2CCC(O)C2)c1 (stereo not drawn) [Example 1130, N-(3-(2-(3-hydroxypyrrolidin-1-yl)-6-morpholinopyridin-4-yl)-4-methylphenyl)-2-(trifluoromethyl)isonicotinamide]
15 | 0.55 | Cc1ccc(NC(=O)c2ccnc(C(F)F)c2)cc1-c1cc(OCCO)nc(N2CCOCC2)c1 [Example 1160, 2-(difluoromethyl)-N-(3-(2-(2-hydroxyethoxy)-6-morpholinopyridin-4-yl)-4-methylphenyl)isonicotinamide]
16 | 0.66 | Cc1ccc(NC(=O)c2cnnc(C(F)(F)F)c2)cc1-c1cc(OC2CCOCC2)nc(N2CCOCC2)c1 [Example 1155, N-(4-methyl-3-(2-morpholino-6-((tetrahydro-2H-pyran-4-yl)oxy)pyridin-4-yl)phenyl)-6-(trifluoromethyl)pyridazine-4-carboxamide]
17 | 5.09 | Cc1ccc(NC(=O)c2cc(C(C)(C)C#N)ccn2)cc1-c1cc(N2CCOCC2)c(=O)n(C)n1 [Example 910, 4-(2-cyanopropan-2-yl)-N-(4-methyl-3-(1-methyl-5-morpholino-6-oxo-1,6-dihydropyridazin-3-yl)phenyl)picolinamide]
18 | 2.17 | Cc1ncc(NC(=O)c2cc(C(F)(F)F)ccn2)cc1-c1cnc(OC2CCOCC2)c(N2CCOCC2)c1 [Example 942, N-(2-methyl-5′-morpholino-6′-((tetrahydro-2H-pyran-4-yl)oxy)-[3,3′-bipyridin]-5-yl)-4-(trifluoromethyl)picolinamide]
19 | 2 | Cc1ncc(NC(=O)c2ccnc(C(C)C)c2)cc1-c1cc(N2CCOCC2)nc(N2CCOCC2)c1 [Example 1119, 2-isopropyl-N-(2-methyl-2′,6′-dimorpholino-[3,4′-bipyridin]-5-yl)isonicotinamide]
20 | 3.89 | Cc1ncc(NC(=O)c2cnnc(C3(C#N)CC3)c2)cc1-c1cnc(OC2CCOCC2)c(N2CCOCC2)c1 [Example 944, 6-(1-cyanocyclopropyl)-N-(2-methyl-5′-morpholino-6′-((tetrahydro-2H-pyran-4-yl)oxy)-[3,3′-bipyridin]-5-yl)pyridazine-4-carboxamide]
21 | 8.79 | Cc1ncc(NC(=O)c2cc(C(C)(C)C#N)ccn2)cc1-c1cnc(OC2CC3(COC3)C2)c(N2CCOCC2)c1 [Example 970, N-(6′-(2-oxaspiro[3.3]heptan-6-yloxy)-2-methyl-5′-morpholino-[3,3′-bipyridin]-5-yl)-4-(2-cyanopropan-2-yl)picolinamide]
22 | 1.81 | CCOc1ncc(-c2cc(NC(=O)c3cccc(S(C)(=N)=O)c3)ccc2C)cc1N1CCOCC1 (stereo not drawn) [Example 975, N-(3-(6-ethoxy-5-morpholinopyridin-3-yl)-4-methylphenyl)-3-(S-methylsulfonimidoyl)benzamide]

same assay, conditions: read-out: b-Raf IC-50; Table 2; AlphaScreen, 3 hours reaction

Row | IC50 [nM] | SMILES
23 | 9.8 | CCOc1cc(C(=O)Nc2cnc(C)c(-c3cc(N4CCOCC4)c(=O)n(C)c3)c2)ccc1F [Example 395, N-(1′,2-dimethyl-5′-morpholino-6′-oxo-1′,6′-dihydro-[3,3′-bipyridin]-5-yl)-3-ethoxy-4-fluorobenzamide]
24 | 0.4 | Cn1cc(-c2cc(NC(=O)c3ccnc(C(F)(F)F)c3)ccc2Cl)cc(N2CCOCC2)c1=O [Example 413, N-(4-chloro-3-(1-methyl-5-morpholino-6-oxo-1,6-dihydropyridin-3-yl)phenyl)-2-(trifluoromethyl)isonicotinamide]
25 | 4.7 | Cc1ncc(NC(=O)c2cccc(C(F)(F)F)c2)cc1-c1cc(N2CCOCC2)c(=O)n(C)c1 [Example 138, N-(1′,2-dimethyl-5′-morpholino-6′-oxo-1′,6′-dihydro-[3,3′-bipyridin]-5-yl)-3-(trifluoromethyl)benzamide]
26 | 2.4 | CCc1cccc(NC(=O)c2ccc(C)c(-c3cc(N4CCOCC4)c(=O)n(C)c3)c2)c1 [Example 435, N-(3-ethylphenyl)-4-methyl-3-(1-methyl-5-morpholino-6-oxo-1,6-dihydropyridin-3-yl)benzamide]
27 | 3.6 | Cc1ncc(NC(=O)c2cccc(C(F)F)c2)cc1-c1cc(N2CCOCC2)c(=O)n(C)c1 [Example 394, 3-(difluoromethyl)-N-(1′,2-dimethyl-5′-morpholino-6′-oxo-1′,6′-dihydro-[3,3′-bipyridin]-5-yl)benzamide]
28 | 62.4 | Cc1ncc(N(C)C(=O)c2cccc(C(F)(F)F)c2)cc1-c1cnc(OC2CCOCC2)c(N2CCOCC2)c1 [Example 328, N-methyl-N-(2-methyl-5′-morpholino-6′-((tetrahydro-2H-pyran-4-yl)oxy)-[3,3′-bipyridin]-5-yl)-3-(trifluoromethyl)benzamide]
29 | 200 | Cc1ncc(NC(=O)c2cc(C3CC3)nn2C)cc1-c1cc(N2CCOCC2)c(=O)n(C)c1 [Example 377, 3-cyclopropyl-N-(1′,2-dimethyl-5′-morpholino-6′-oxo-1′,6′-dihydro-[3,3′-bipyridin]-5-yl)-1-methyl-1H-pyrazole-5-carboxamide]
30 | 3.6 | Cc1ncc(NC(=O)c2ccnc(C(F)(F)F)c2)cc1-c1cncc(N2CCOCC2)c1 [Example 295]
31 | 100 | Cc1cc(C(=O)Nc2ccc(C)c(-c3cc(N4CCOCC4)c(=O)n(C)c3)c2)n(C)n1 [Example 381, 1,3-dimethyl-N-(4-methyl-3-(1-methyl-5-morpholino-6-oxo-1,6-dihydropyridin-3-yl)phenyl)-1H-pyrazole-5-carboxamide]
32 | 0.9 | CCOc1ncc(-c2cc(C(=O)Nc3cccc(S(C)(=O)=O)c3)ccc2C)cc1N1CCOCC1 [Example 238, 3-(6-ethoxy-5-morpholinopyridin-3-yl)-4-methyl-N-(3-(methylsulfonyl)phenyl)benzamide]
33 | 12.3 | Cc1ncc(NC(=O)c2ccnc(C(C)(F)F)c2)cc1-c1cc(N2CCOCC2)c(=O)n(C)c1 [Example 391, 2-(1,1-difluoroethyl)-N-(1′,2-dimethyl-5′-morpholino-6′-oxo-1′,6′-dihydro-[3,3′-bipyridin]-5-yl)isonicotinamide]
